Measured values reported in patent US12110293B2, “Substituted triazolo quinoxaline derivatives” (GRÜNENTHAL GMBH, priority 2018, dated 2024).

Biological target: T1, glucocorticoid receptor (Homo sapiens, UniProt P04150)
T1 construct: expressed in transfected cells
T1 sequence (P04150 524-758 limits assumed): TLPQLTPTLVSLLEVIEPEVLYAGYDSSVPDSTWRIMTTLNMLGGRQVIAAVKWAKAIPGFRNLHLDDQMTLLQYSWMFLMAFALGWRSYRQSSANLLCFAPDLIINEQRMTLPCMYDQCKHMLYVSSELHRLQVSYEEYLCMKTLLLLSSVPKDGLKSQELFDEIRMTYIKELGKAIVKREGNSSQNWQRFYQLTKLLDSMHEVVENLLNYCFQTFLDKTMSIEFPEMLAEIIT
Test: Agonistic mode of action on the glucocorticoid receptor (CHO-Gal4/GR luciferase reporter cell line)
Assay type: cell-based
Settings: range class observed in the agonistic assay or the antagonistic assay (CHO-Gal4/GR reporter cells); table does not say which mode applies per example
Procedure, shortened: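 CHO cells stably carrying GAL4 DBD–GR ligand-binding-domain fusion and GAL4-UAS firefly luciferase reporter, 5000 cells/well grown 24 h, then compounds added in Opti-MEM at 8 half-log concentrations from 10 μM to 0.003 μM (0.5% DMSO), quadruplicates. Agonist-induced luminescence read on FLIPR Tetra; EC50 calculated.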

In the case of `Cc1nnc2n1-c1c(cc(F)c(-c3cccc4c3ccn4S(=O)(=O)CC3CC3)c1C(F)F)NC2(C)C` [Example 502, 8-[1-(Cyclopropyl-methylsulfonyl)-1H-indol-4-yl]-9-(difluoro-methyl)-7-fluoro-1,4,4-trimethyl-5H-[1,2,4]triazolo[4,3-a]quinoxaline], the IC50 or EC50 (agonist or antagonist mode not specified) is reported as 0.1 to 1 µM.
`CCS(=O)(=O)n1ccc2c(-c3c(F)cc4c(c3C(F)(F)F)-n3c(C)nnc3C(C)(C)N4)cccc21` [Example 455, 8-[1-(Ethylsulfonyl)-1H-indol-4-yl]-7-fluoro-1,4,4-trimethyl-9-(trifluoromethyl)-5H-[1,2,4]triazolo[4,3-a]quinoxaline] showed an IC50 or EC50 (agonist or antagonist mode not specified) of less than 0.1 µM.
With `COCCn1ccc2c(-c3c(F)cc4c(c3OC)-n3c(C)nnc3C(C)(C)N4)cc(F)cc21` [Example 351, 7-Fluoro-8-[6-fluoro-1-(2-methoxy-ethyl)-1H-indol-4-yl]-9-methoxy-1,4,4-trimethyl-5H-[1,2,4]triazolo [4,3-a]quinoxaline] the IC50 or EC50 (agonist or antagonist mode not specified) was less than 0.1 µM.
In the case of `Cc1c(-c2cc(F)cc3c(CC(F)(F)F)c[nH]c23)c(F)cc2c1-n1c(C)nnc1C(C)(C)N2` [Example 23, 7-fluoro-8-(5-fluoro-3-(2,2,2-trifluoroethyl)-1H-indol-7-yl)-1,4,4,9-tetramethyl-4,5-dihydro-[1,2,4]triazolo[4,3-a]quinoxaline], the IC50 or EC50 (agonist or antagonist mode not specified) is reported as less than 0.1 µM.
Work on `COc1c(-c2cc(F)cc3c2ccn3S(C)(=O)=O)c(F)cc2c1-n1c(C)nnc1C(C)(C)N2` [Example 250, 7-Fluoro-8-(6-fluoro-1-methylsulfonyl-1H-indol-4-yl)-9-methoxy-1,4,4-trimethyl-5H-[1,2,4]triazolo[4,3-a]quinoxaline] yielded an IC50 or EC50 (agonist or antagonist mode not specified) of less than 0.1 µM.
Compound `Cc1c(-c2cc(F)cc3c2ccn3S(C)(=O)=O)ccc2c1-n1c(C)nnc1C(C)(C)N2` [Example 453, 8-(6-Fluoro-1-methylsulfonyl-1H-indol-4-yl)-1,4,4,9-tetramethyl-5H-[1,2,4]triazolo[4,3-a]quinoxaline] has an IC50 or EC50 (agonist or antagonist mode not specified) of less than 0.1 µM.
Compound `Cc1c(-c2cc(F)cc3c(C)c[nH]c23)c(OC(F)F)cc2c1-n1c(C)nnc1C(C)(C)N2` [Example 365, 7-(Difluoro-methoxy)-8-(5-fluoro-3-methyl-1H-indol-7-yl)-1,4,4,9-tetramethyl-5H-[1,2,4]triazolo[4,3-a]quinoxaline] has an IC50 or EC50 (agonist or antagonist mode not specified) of 1 to 15 µM.
In the case of `Cc1nnc2n1-c1c(cc(F)c(-c3cccc4c3ccn4S(=O)(=O)CC3CC3)c1F)NC2(C)C` [Example 210, 8-[1-(Cyclopropyl-methylsulfonyl)-1H-indol-4-yl]-7,9-difluoro-1,4,4-trimethyl-5H-[1,2,4]triazolo[4,3-a]quinoxaline], the IC50 or EC50 (agonist or antagonist mode not specified) is reported as less than 0.1 µM.
In the case of `Cc1nnc2n1-c1c(cc(F)c(-c3cccc4c3ccn4S(C)(=O)=O)c1F)NC2(C)C` [Example 22, 7,9-difluoro-1,4,4-trimethyl-8-(1-(methylsulfonyl)-1H-indol-4-yl)-4,5-dihydro-[1,2,4]triazolo[4,3-a]quinoxaline], the IC50 or EC50 (agonist or antagonist mode not specified) is reported as 0.1 to 1 µM.
Work on `CC(=O)n1ccc2c(-c3c(F)cc4c(c3F)-n3c(C)nnc3C(C)(C)N4)cc(F)cc21` [Example 4, 1-(4-(7,9-difluoro-1,4,4-trimethyl-4,5-dihydro-[1,2,4]triazolo[4,3-a]quinoxalin-8-yl)-6-fluoro-1H-indol-1-yl)ethanone] yielded an IC50 or EC50 (agonist or antagonist mode not specified) of less than 0.1 µM.
`CCS(=O)(=O)n1ccc2c(-c3c(F)cc4c(c3OC)-n3c(C)nnc3C(C)(C)N4)cc(F)cc21` [Example 362, 8-[1-(Ethylsulfonyl)-6-fluoro-1H-indol-4-yl]-7-fluoro-9-methoxy-1,4,4-trimethyl-5H-[1,2,4]triazolo[4,3-a]quinoxaline] was tested, and the IC50 or EC50 (agonist or antagonist mode not specified) was less than 0.1 µM.
Work on `COc1cc2c(c(C(F)(F)F)c1-c1cccc3c1ccn3C)-n1c(C)nnc1C(C)(C)N2` [Example 509, 7-Methoxy-1,4,4-trimethyl-8-(1-methyl-1H-indol-4-yl)-9-(trifluoromethyl)-5H-[1,2,4]triazolo[4,3-a]quinoxaline] yielded an IC50 or EC50 (agonist or antagonist mode not specified) of 0.1 to 1 µM.
`Cc1nnc2n1-c1c(cc(F)c(-c3ccc(Cl)c4[nH]ccc34)c1F)NC2(C)C` [Example 529, 8-(7-Chloro-1H-indol-4-yl)-7,9-difluoro-1,4,4-trimethyl-5H-[1,2,4]triazolo[4,3-a]quinoxaline] showed an IC50 or EC50 (agonist or antagonist mode not specified) of 0.1 to 1 µM.
`Cc1c(-c2cccc3c(C)c[nH]c23)c(OC(F)(F)F)cc2c1-n1c(C)nnc1C(C)(C)N2` [Example 405, 1,4,4,9-Tetramethyl-8-(3-methyl-1H-indol-7-yl)-7-(trifluoromethyloxy)-5H-[1,2,4]triazolo[4,3-a]quinoxaline] gave an IC50 or EC50 (agonist or antagonist mode not specified) of 0.1 to 1 µM.
`COc1cc2c(c(F)c1-c1cc(F)cc3c(C)c[nH]c13)-n1c(C)nnc1C(C)(C)N2` [Example 251, 9-Fluoro-8-(5-fluoro-3-methyl-1H-indol-7-yl)-7-methoxy-1,4,4-trimethyl-5H-[1,2,4]triazolo[4,3-a]quinoxaline] was tested, and the IC50 or EC50 (agonist or antagonist mode not specified) was 0.1 to 1 µM.
`Cc1nnc2n1-c1c(cc(F)c(-c3cccc4c3ccn4S(=O)(=O)C3CC3)c1C(F)F)NC2(C)C` [Example 401, 8-[1-(Cyclopropylsulfonyl)-1H-indol-4-yl]-9-(difluoro-methyl)-7-fluoro-1,4,4-trimethyl-5H-[1,2,4]triazolo [4,3-a]quinoxaline] showed an IC50 or EC50 (agonist or antagonist mode not specified) of 0.1 to 1 µM.
With `COCCn1ccc2c(-c3c(OC)cc4c(c3F)-n3c(C)nnc3C(C)(C)N4)cccc21` [Example 288, 9-Fluoro-7-methoxy-8-[1-(2-methoxy-ethyl)-1H-indol-4-yl]-1,4,4-trimethyl-5H-[1,2,4]triazolo[4,3-a]quinoxaline] the IC50 or EC50 (agonist or antagonist mode not specified) was 1 to 15 µM.
Compound `Cc1nnc2n1-c1c(cc(F)c(-c3cccc4[nH]ccc34)c1C(F)(F)F)NC2(C)C` [Example 467, 7-Fluoro-8-(1H-indol-4-yl)-1,4,4-trimethyl-9-(trifluoromethyl)-5H-[1,2,4]triazolo[4,3-a]quinoxaline] has an IC50 or EC50 (agonist or antagonist mode not specified) of less than 0.1 µM.
`Cc1c(-c2cccc3c(C)n[nH]c23)c(Cl)cc2c1-n1c(C)nnc1C(C)(C)N2` [Example 368, 7-Chloro-1,4,4,9-tetramethyl-8-(3-methyl-1H-indazol-7-yl)-5H-[1,2,4]triazolo[4,3-a]quinoxaline] gave an IC50 or EC50 (agonist or antagonist mode not specified) of 0.1 to 1 µM.
`Cc1c[nH]c2c(-c3ccc4c(c3C(F)F)-n3c(C)nnc3C(C)(C)N4)cc(F)cc12` [Example 527, 9-(Difluoro-methyl)-8-(5-fluoro-3-methyl-1H-indol-7-yl)-1,4,4-trimethyl-5H-[1,2,4]triazolo [4,3-a]quinoxaline] gave an IC50 or EC50 (agonist or antagonist mode not specified) of less than 0.1 µM.
`Cc1nnc2n1-c1c(cc(F)c(-c3cccc4c3ccn4C3CC3)c1C(F)F)NC2(C)C` [Example 514, 8-(1-Cyclopropyl-1H-indol-4-yl)-9-(difluoro-methyl)-7-fluoro-1,4,4-trimethyl-5H-[1,2,4]triazolo[4,3-a]quinoxaline] showed an IC50 or EC50 (agonist or antagonist mode not specified) of 0.1 to 1 µM.
`Cc1nnc2n1-c1c(cc(F)c(-c3cc(F)cc4c3ccn4CCO)c1C(F)(F)F)NC2(C)C` [Example 447, 2-[6-Fluoro-4-[7-fluoro-1,4,4-trimethyl-9-(trifluoromethyl)-5H-[1,2,4]triazolo[4,3-a]quinoxalin-8-yl]-1H-indol-1-yl]-ethanol] showed an IC50 or EC50 (agonist or antagonist mode not specified) of 0.1 to 1 µM.
In the case of `Cc1nnc2n1-c1c(cc(F)c(-c3cccc4c3ccn4S(=O)(=O)C(C)C)c1C(F)F)NC2(C)C` [Example 400, 9-(Difluoro-methyl)-7-fluoro-8-[1-(isopropylsulfonyl)-1H-indol-4-yl]-1,4,4-trimethyl-5H-[1,2,4]triazolo [4,3-a]quinoxaline], the IC50 or EC50 (agonist or antagonist mode not specified) is reported as 1 to 15 µM.
`Cc1c(-c2cc(Cl)cc3[nH]ccc23)c(F)cc2c1-n1c(C)nnc1C(C)(C)N2` [Example 513, 8-(6-Chloro-1H-indol-4-yl)-7-fluoro-1,4,4,9-tetramethyl-5H-[1,2,4]triazolo[4,3-a]quinoxaline] gave an IC50 or EC50 (agonist or antagonist mode not specified) of 0.1 to 1 µM.
In the case of `CCc1nnc2n1-c1c(cc(F)c(-c3cccc4cc[nH]c34)c1F)NC2(C)C` [Example 11, 1-ethyl-7,9-difluoro-8-(1H-indol-7-yl)-4,4-dimethyl-4,5-dihydro-[1,2,4]triazolo[4,3-a]quinoxaline], the IC50 or EC50 (agonist or antagonist mode not specified) is reported as 0.1 to 1 µM.
Work on `Cc1cc2c(c(F)c1-c1cccc3c(C)c[nH]c13)-n1c(C)nnc1C(C)(C)N2` [Example 359, 9-Fluoro-1,4,4,7-tetramethyl-8-(3-methyl-1H-indol-7-yl)-5H-[1,2,4]triazolo[4,3-a]quinoxaline] yielded an IC50 or EC50 (agonist or antagonist mode not specified) of 0.1 to 1 µM.
`Cc1nnc2n1-c1c(cc(F)c(-c3cccc4[nH]ccc34)c1F)NC2(C)C` [Example 445, 7,9-Difluoro-8-(1H-indol-4-yl)-1,4,4-trimethyl-5H-[1,2,4] triazolo[4,3-a]quinoxaline] was tested, and the IC50 or EC50 (agonist or antagonist mode not specified) was less than 0.1 µM.
Work on `Cc1c(-c2cc(F)cc3c2ccn3S(C)(=O)=O)c(OC(F)(F)F)cc2c1-n1c(C)nnc1C(C)(C)N2` [Example 403, 8-(6-Fluoro-1-methylsulfonyl-1H-indol-4-yl)-1,4,4,9-tetramethyl-7-(trifluoromethyloxy)-5H-[1,2,4]triazolo[4,3-a]quinoxaline] yielded an IC50 or EC50 (agonist or antagonist mode not specified) of less than 0.1 µM.
In the case of `Cc1nnc2n1-c1c(cc(F)c(-c3cccc4[nH]c(C(F)(F)F)cc34)c1F)NC2(C)C` [Example 225, 7,9-Difluoro-1,4,4-trimethyl-8-[2-(trifluoromethyl)-1H-indol-4-yl]-5H-[1,2,4]triazolo[4,3-a]quinoxaline], the IC50 or EC50 (agonist or antagonist mode not specified) is reported as less than 0.1 µM.
